Laboratory results from US9017693B2, “Apoptotically active peptides” (Cytotools AG, priority 2001, dated 2015).
Non-standard residues stand in square brackets, D forms with d. No end group written: not given here.

Experiments:
[1] = test system: HUVEC; assay: Test system for apoptotically active peptides: TSP-1-induced apoptosis of cultivated HUVEC, DAPI dyeing; assay type: cell-based, human
Protocol: For the purposes of the disclosure, the term “apoptotically active” will mean that the addition of the respective substance to the test system shown in Examples 5 and 6 generates either a positive or negative inhibition index. Particularly endothelial cells, preferably especially HUVEC, are to this end cultivated in a medium which includes 1 μg TSP-1 per ml. The percentage apoptosis values of such positive control will then serve, as shown in the examples, for the calculation of the inhibition index for those substances which are used as potential inhibitors together with the inductor TSP-1 in parallel tests.
(§1) Cultivation of HUVEC takes place in gelatin-coated culture vessels at 37° C., 5% CO2 and water vapor saturated atmosphere. The culture medium is exchanged every two to three days; in case of confluence, the cells are passaged at a cleavage rate of from 1:3 to 1:5. HUVEC grow strictly contact-inhibited and form unilaminar cell bed having the typical cobble-stone morphology. In case of confluence, the cultures reach cell densities of 4-9×10^4 cells/cm^2. For apoptosis examinations, HUVEC cultures of passages 1-4 are exclusively employed.
(§2) The culture supernatant of a Petri dish is sucked off, the cell bed is fixed on ice for 15 minutes with 1 ml formaldehyde solution, is washed twice with 2 ml PBS, is added 0.5 ml DAPI solution for 15 minutes, is washed with PBS and evaluated under the fluorescence microscope. A UV filter set and a 20× and a 40× objective are used. 500 to 1000 cells are selected at random and the cells having apoptotic nuclei are counted.
(§3) The apoptosis index is calculated in accordance with the following formula: Apoptosis index [%]=number of apoptotic cells/total cell number×100 Flow Cytometry: Solutions: • PBS • Medium • Ethanol (reagent-grade) ice-cooled (−20° C.) • DAPI buffer • DAPI stock solution • DAPI dye solution Procedure:
The culture supernatant is sucked off and the cells are trypsinized without washing them with PBS. The cell suspension is received in medium, is counted, is centrifuged at 800×g for 5 minutes, the sediment is re-suspended in 0.5 ml IF and is dripped into 1.5 ml ice-cold ethanol. The suspension is stored overnight at […]. After renewed centrifugation and re-suspending of the sediment in 2 ml PBS, there follows a half-hour incubation at 37° C., further centrifugation, re-suspending of the sediment in 5 ml DAPI solution, and counting in the flow cytometer at a counting rate of 50 to 300 events per second. […] Caused by the decreasing absolute DNS amount per cell, apoptotic cells appear in a sub-G1 peak [Darzynklewicz Z. et al., Cytometry, 13, 795-808 (1992); Zamai L. et al., Cytometry, 14, 891-897 (1993)].
The cells were cultivated as described in Example 1. The cells are seeded in the corresponding culture vessels (e.g. 24-hole plate/0.5 ml per cavity) and, having obtained complete confluence, are employed for the test. The cells are provided with new medium: • (a) fresh culture medium [Base rate of apoptosis], • (b) fresh medium with 1 μg/ml TSP-1 [Apoptosis-induced substance; control], • (c) medium (b)+peptide of SEQ ID NO 1, 1 mM • (d) medium (b)+peptide of SEQ ID NO 2, 1 mM • (e) medium (b)+peptide of SEQ ID NO 3, 1 mM • (f) medium (b)+peptide of SEQ ID NO 4, 1 mM • (g) medium (b)+peptide of SEQ ID NO 7, 1 mM • (h) medium (b)+peptide of SEQ ID NO 8, 1 mM • (i) medium (b)+peptide of SEQ ID NO 9, 1 mM • (j) medium (b)+peptide of SEQ ID NO 10, 1 mM • (k) medium (b)+peptide of SEQ ID NO 11, 1 mM • (l) medium (b)+peptide of SEQ ID NO 12, 1 mM • (m) medium (b)+peptide of SEQ ID NO 13, 1 mM • (n) medium (b)+peptide of SEQ ID NO 14, 1 mM • (o) medium (b)+peptide of SEQ ID NO 15, 1 mM • (p) medium (b)+peptide of SEQ ID NO 16, 1 mM • (q) medium (b)+peptide of SEQ ID NO 17, 1 mM • (r) medium (b)+peptide of SEQ ID NO 18, 1 mM • (s) medium (b)+peptide of SEQ ID NO 19, 1 mM […]

[2] = test system: HUVEC; assay: Induction of apoptosis at HUVEC with TSP-1; assay type: cell-based, human; conditions: confluent HUVEC, fresh medium + TSP-1 1 μg/ml; fresh medium alone 0.9 ± 0.1
Protocol: as §1, §2, §3
The cells are cultivated as described in Example 1. Having obtained complete confluence, the cells are used for the test. […]

[3] = lengthened peptide sequences, TSP-1 + peptide, tests as in Example 5, control 8.73 ± 0.43
[4] = lengthened peptide sequences, TSP-1 + peptide, tests as in Example 5, positive = substance inhibited
[5] = 1 μg/ml TSP-1 + peptide 1 mM, 24 hours, positive = substance inhibited, negative = substance induced apoptosis
[6] = medium with 1 μg/ml TSP-1 + peptide 1 mM, 24 hours, mean ± SD of three independent experiments, control 3.28 ± 0.55

| Substance | Apoptosis index [%] [1, 3] | Inhibition index [%] [1, 4] | Inhibition index [%] [1, 5] | Apoptosis index [%] [1, 6] | Apoptosis rate (%) after 24 h [2] |
| --- | --- | --- | --- | --- | --- |
| K-R-A-Y-V-V-M-W-K-K (KRAYVVMWLL) [SEQ ID NO 5] | 0.37 ± 0.22% | +95.8 ± 2.6% |  |  |  |
| R-W-Y-V-V-M (RWYVVM) [SEQ ID NO 2] |  |  | +61.9 ± 7.7% | 1.30 ± 0.26% |  |
| R-E-Y-V-V-M (REYVVM) [SEQ ID NO 4] |  |  | +69.0 ± 8.9% | 1.04 ± 0.30% |  |
| m-v-v-y-a-r ([dM][dV][dV][dY][dA][dR]) [SEQ ID NO 19] |  |  | −247.1 ± 5.4% | 11.4 ± 0.63% |  |
| R-P-Y-V-V-M (RPYVVM) [SEQ ID NO 15] |  |  | −72.8 ± 6.4% | 5.67 ± 0.54% |  |
| R-L-Y-V-V-M (RLYVVM) [SEQ ID NO 14] |  |  | −95.4 ± 6.1% | 6.41 ± 0.63% |  |
| M-V-V-Y-F-R (MVVYFR) [SEQ ID NO 12] |  |  | −34.1 ± 6.2% | 4.40 ± 0.53% |  |
| R-M-Y-V-V-M (RMYVVM) [SEQ ID NO 8] |  |  | +44.2 ± 11.6% | 1.84 ± 0.39% |  |
| K-R-E-Y-V-V-M-W-K-K (LREYVVMWKK) [SEQ ID NO 6] | 0.48 ± 0.22% | +94.5 ± 2.5% |  |  |  |
| R-Y-Y-V-V-M (RYYVVM) [SEQ ID NO 3] |  |  | +74.7 ± 5.0% | 0.85 ± 0.17% |  |
| R-T-Y-V-V-M (RTYVVM) [SEQ ID NO 9] |  |  | +44.5 ± 9.8% | 1.86 ± 0.36% |  |
| R-S-Y-V-V-M (RSYVVM) [SEQ ID NO 16] |  |  | −108.4 ± 3.7% | 6.86 ± 0.37% |  |
| R-G-Y-V-V-M (RGYVVM) [SEQ ID NO 7] |  |  | +46.4 ± 11.1% | 1.83 ± 0.37% |  |
| R-C-Y-V-V-M (RCYVVM) [SEQ ID NO 17] |  |  | −326.5 ± 3.6% | 13.97 ± 0.35% |  |
| R-A-Y-V-V-A (RAYVVA) [SEQ ID NO 13] |  |  | −51.8 ± 6.0% | 4.98 ± 0.3% |  |
| m-v-v-y-f-r ([dM][dV][dV][dY][dF][dR]) [SEQ ID NO 18] |  |  | −345.1 ± 5.1% | 14.6 ± 0.75% |  |
| R-D-Y-V-V-M (RDYVVM) [SEQ ID NO 11] |  |  | +37.3 ± 14.0% | 2.12 ± 0.47% |  |
| TSP-1: thrombospondin 1, apoptosis-inducing substance added at 1 μg/ml to HUVEC medium as inductor/control |  |  |  |  | 3.0 ± 0.4% |
| R-A-Y-V-V-M (RAYVVM) [SEQ ID NO 1] |  |  | +75.3 ± 7.5% | 0.83 ± 0.24% |  |
| R-N-Y-V-V-M (RNYVVM) [SEQ ID NO 10] |  |  | +39.5 ± 15.8% | 2.06 ± 0.53% |  |
